Literature values, collected in US20090247593A1, “N-THIAZOL-2-YL-BENZAMIDE DERIVATIVES” (H. Lundbeck A/S, priority 2003, published 2009).
Read-outs that look alike come from different tables or passages of the source.

Columns and labels:
[1] = test system: mice; settings: for total immobility time: mouse tail suspension test
[2] = test system: unilateral 6-OHDA lesioned mice and rats; settings: elicited by a subthreshold dose of levodopa
[3] = test system: mice; settings: mouse forced swimming test
[4] = test system: MPTP treated mice and 6-OHDA-lesioned rats
[5] = test system: non-human primates treated with MPTP
[6] = mice previously screened for having high immobility time

SMILES | immobility [1, 6] | total immobility time [1] | contralateral rotations [2] | immobility time [3] | other results
Nc1nc2c(cnn2CCc2ccccc2)c2nc(-c3ccco3)nn12 [SCH58261, 2-(2-furanyl)-7-(2-phenylethyl)-7H-pyrazolo[4,3-e][1,2,4]triazolo[1,5-c]pyrimidin-5-amine] | reduce immobility | reduced the total immobility time | enhance contralateral rotations | – | immobility ([1]; mice selectively bred for their helplessness): reduced immobility
Nc1nc(NCCc2ccc(O)cc2)nc2nc(-c3ccco3)nn12 [ZM241385, 4-(2-[7-amino-2-(2-furyl) [1,2,4]triazolo[2,3-a][1,3,5]triazin-5-ylamino]-ethyl)phenol] | reduce immobility | – | – | – | –
Nc1ncnc2c1ncn2[C@@H]1O[C@H](CO)[C@@H](O)[C@H]1O [adenosine] | – | – | – | increased immobility time | –
Nc1nc(Cl)nc2c1ncn2[C@@H]1O[C@H](CO)[C@@H](O)[C@H]1O [2-chloroadenosine] | – | – | – | increased immobility time | –
CCn1c(=O)c2c(nc(/C=C/c3ccc(OC)c(OC)c3)n2C)n(CC)c1=O [KW-6002, 8-[(1E)-2-(3,4-dimethoxyphenyl)ethenyl]-1,3-diethyl-3,7-dihydro-7-methyl-1H-purine-2,6-dione] | – | reduced the total immobility time | enhance contralateral rotations | – | functional loss of dopaminergic nerve terminals in the striatum [4]: prevented functional loss of dopaminergic nerve terminals in the striatum; gliosis normally induced around degenerating neurons [4]: prevented gliosis; motor impairment ([5]; induced in non-human primates by MPTP): significantly improves motor impairment; dyskinesias ([5]; non-human primates, MPTP): without causing dyskinesias
